# From patent publication US20260174778A1, “SULFONAMIDE COMPOUND, AND PREPARATION METHOD THEREFOR AND USE THEREOF” (SHANGHAI HENLIUS BIOTECH, INC., priority 2023, published 2026)
# Tested on: breast cancer cell line ZR-75-1
# Experiment: Inhibition of proliferation of breast cancer cell line ZR-75-1 (CellTiter-Glo)
# Type: cell-based
# Details: Homo sapiens, 240 h, proliferation of ZR-75-1 cells, 10 days of incubation, read-out: IC50 (KAT6A)
# From the text: Test Example 1: Experiment for Determining Inhibitory Effects of Compounds on Proliferation of Breast Cancer Cell Line ZR-75-1
# ATP is an indicator of the metabolism of living cells. The CellTiter-Glo® Luminescent Cell Viability Assay is a homogeneous assay method for determining the number of viable cells by quantifying ATP.
# • 1) ZR-75-1 (Cell Bank of Chinese Academy of Sciences, TCHul26) • 2) RPMI-1640 medium (Gibco, 11875-093) • 3) Fetal Bovine Serum, New Zealand (Gibco,10091-148) • 4) Penicillin-streptomycin (10,000 U/mL) (Gibco, 15140-122) • 5) Trypsin-EDTA (0.25%), containing phenol red (Gibco, 25200-072) • 6) DPBS (Shanghai BasalMedia, B210KJ) • 7) Corning® 96-well Clear Flat Bottom Ultra-Low Attachment Microplate (Corning, Cat. No. 3474) • 8) 330 μL 96 Holes Deep Well Plate, transparents, 96 Round Holes, V-shaped Bottom, Low Retention (Stellar Scientific, DP33VR-9-NS) • 9) Corning® 96-well solid white flat-bottom polystyrene microplate (Corning, Cat. No. 3917) • 10) CellTiter-Glo® Luminescent Cell Viability Assay (Promega, G7573) • 11) Countstar® BioMed automatic cell counter • 12) Trypan blue solution, 0.4% (Gibco, Cat. No. 15250061) • 13) 37° C. constant-temperature incubator (Thermo, FORMA STERI-CYCLE i160 LK) • 14) Biosafety cabinet (Thermo, 1379)
# • 1) The formula of the complete medium for ZR-75-1 was as follows: 500 mL RPMI-1640+10% FBS+1% penicillin-streptomycin. • 2) Thirty minutes before cell plating, the complete medium, serum, trypsin, and DPBS for use in ZR-75-1 cell culture were pre-warmed in a water bath at 37° C. • 3) The ZR-75-1 cells were taken out of the incubator, and the medium was removed by pipetting. The cells were rinsed once with 5 mL of DPBS, and then the DPBS was discarded. • 4) The cells in the T75 culture flask were digested with 1-3 mL of (0.25%) trypsin-EDTA. After the trypsin was added, the culture flask was incubated in an incubator at 37° C. for 2-5 min, and dispersion was confirmed by microscopic examination. Tapping or agitating the culture flask was avoided to prevent disturbing the cells, which might cause cell clumping. • 5) 9 mL of the complete medium was added to terminate the digestion, thus forming a cell suspension, which was then mixed well by pipetting. • 6) Cell suspension counting: 20 μL of the cell suspension was pipetted and diluted with 20 µL of the 0.4% trypan blue solution (Gibco, Cat. No. 15250061). The total cell count and the percentage of cell viability were determined using the Countstar® BioMed automatic cell counter. Only cells with a cell viability of no less than 95% were used for the experiment. • 7) The concentration of the cell suspension was adjusted to 2000 cells/well, and the cell suspension was added to a 96-well cell culture plate at 80 μL/well. Treatment of Cells with Compounds • 1) Twenty-four hours after cell plating, the cell plate was taken out. • 2) Each compound was prepared with a complete medium. The stock solution was a 10 mM solution in DMSO, which was first diluted with the medium to 100 μM, then diluted to 1 μM, and finally subjected to a 5-fold serial dilution across a total of 9 concentration gradients. • 3) 20 μL of the compound diluted with the medium was added to each well of the cell culture plate, which already contained 80 μL of the medium. The final concentration started at 200 nM, followed by a 5-fold serial dilution across a total of 9 concentration gradients. Two replicate wells were set for each compound, and each plate could be used to test 3 compounds, with the DMSO content controlled within 0.5%. • 4) The culture medium was replenished once every three days with a complete medium containing the same concentration of the test compound, with 20 μL/well added each time.
# After 10 days of incubation with the compound, the cell culture plate was taken out, and the CellTiter-Glo® reagent was added at 50 μL/well. […]
row,Compound,IC50 [nM]
1,"COc1ccc2c(c1S(=O)(=O)Nc1noc3cc(Cn4cccn4)cc(OC)c13)OCCC21CCCC1 [Compound 26, N-(6-((1H-Pyrazol-1-yl)methyl)-4-methoxybenzo[d]isoxazol-3-yl)-7-methoxyspiro[chromane-4,1′-cyclopentane]-8-sulfonamide]",< 0.5
2,"COc1ccc2c(c1S(=O)(=O)Nc1noc3cc(Cn4cccn4)c(Cl)c(OC)c13)OCCO2 [Compound 30, N-(6-((1H-Pyrazol-1-yl)methyl)-5-chloro-4-methoxybenzo[d]isoxazol-3-yl)-6-methoxy-2,3-dihydrobenzo[b][1,4]dioxine-5-sulfonamide]",10 to 50
3,"COc1ccc2c(c1S(=O)(=O)Nc1noc3cc(Cn4cccn4)cc(Cl)c13)OCCO2 [Compound 34, N-(6-((1H-Pyrazol-1-yl)methyl)-4-chlorobenzo[d]isoxazol-3-yl)-6-methoxy-2,3-dihydrobenzo[b][1,4]dioxine-5-sulfonamide]",2 to 10
4,"COc1ccc2c(c1S(=O)(=O)Nc1noc3cc(Cn4cccn4)cc(OC)c13)OCCC21CC1 [Compound 35, N-(6-((1H-Pyrazol-1-yl)methyl)-4-methoxybenzo[d]isoxazol-3-yl)-7-methoxyspiro[chromane-4,1′-cyclopropane]-8-sulfonamide]",< 0.5
5,"COc1ccc2c(c1S(=O)(=O)Nc1noc3cc(Cn4cccn4)cc(OC)c13)OCCC2O (centres unmarked) [Compound 36, N-(6-((1H-Pyrazol-1-yl)methyl)-4-methoxybenzo[d]isoxazol-3-yl)-4-hydroxy-7-methoxychromane-8-sulfonamide]",< 0.5
6,"COc1ccc2c(c1S(=O)(=O)Nc1noc3cc(Cn4cccn4)cc(OC)c13)OCCC2=O [Compound 37, N-(6-((1H-Pyrazol-1-yl)methyl)-4-methoxybenzo[d]isoxazol-3-yl)-7-methoxy-4-oxochromane-8-sulfonamide]",< 0.5
7,"COc1ccc2c(c1S(=O)(=O)Nc1noc3cc(Cn4cccn4)cc(OC)c13)OCCC2(C)O (centres unmarked) [Compound 38, N-(6-((1H-Pyrazol-1-yl)methyl)-4-methoxybenzo[d]isoxazol-3-yl)-4-hydroxy-7-methoxy-4-methylchromane-8-sulfonamide]",< 0.5
8,"COc1ccc2c(c1S(=O)(=O)Nc1noc3cc(Cn4cccn4)cc(OC)c13)OCCC21SCCS1 [Compound 39, N-(6-((1H-Pyrazol-1-yl)methyl)-4-methoxybenzo[d]isoxazol-3-yl)-7-methoxyspiro[chromane-4,2′-[1,3]dithiolane]-8-sulfonamide]",< 0.5
9,"COc1ccc2c(c1S(=O)(=O)Nc1noc3cc(Cn4cccn4)cc(OC)c13)OCCN2C [Compound 41, N-(6-((1H-Pyrazol-1-yl)methyl)-4-methoxybenzo[d]isoxazol-3-yl)-7-methoxy-4-methyl-3,4-dihydro-2H-benzo[b][1,4]oxazine-8-sulfonamide]",0.5 to 2
10,"COc1ccc2c(c1S(=O)(=O)Nc1noc3cc(Cn4cccn4)c(F)c(OC)c13)OCCC21SCCS1 [Compound 44, N-(6-((1H-Pyrazol-1-yl)methyl)-5-fluoro-4-methoxybenzo[d]isoxazol-3-yl)-7-methoxyspiro[chromane-4,2′-[1,3]dithiolane]-8-sulfonamide]",< 0.5
11,"COc1ccc2c(c1S(=O)(=O)Nc1noc3cc(Cn4cccn4)cc(Cl)c13)OCCC2=O [Compound 45, N-(6-((1H-Pyrazol-1-yl)methyl)-4-chlorobenzo[d]isoxazol-3-yl)-7-methoxy-4-oxochromane-8-sulfonamide]",2 to 10
12,"COc1ccc2c(c1S(=O)(=O)Nc1noc3cc(Cn4cccn4)cc(Cl)c13)OCCC21CC1 [Compound 46, N-(6-((1H-Pyrazol-1-yl)methyl)-4-chlorobenzo[d]isoxazol-3-yl)-7-methoxyspiro[chromane-4,1′-cyclopropane]-8-sulfonamide]",2 to 10
13,"COc1ccc2c(c1S(=O)(=O)Nc1noc3cc(Cn4cccn4)cc(Cl)c13)OCCC21SCCS1 [Compound 47, N-(6-((1H-Pyrazol-1-yl)methyl)-4-chlorobenzo[d]isoxazol-3-yl)-7-methoxyspiro[chromane-4,2′-[1,3]dithiolane]-8-sulfonamide]",0.5 to 2
14,"COc1ccc2c(c1S(=O)(=O)Nc1noc3cc(Cn4cccn4)c(Cl)c(OC)c13)OCCC21CC1 [Compound 52, N-(6-((1H-Pyrazol-1-yl)methyl)-5-chloro-4-methoxybenzo[d]isoxazol-3-yl)-7-methoxyspiro[chromane-4,1′-cyclopropane]-8-sulfonamide]",≥ 50
15,"COc1cccc(OC)c1S(=O)(=O)Nc1nnc2cc(Cn3cccn3)cc(OC)n12 [Compound 58, N-(7-((1H-Pyrazol-1-yl)methyl)-5-methoxy-[1,2,4]triazolo[4,3-a]pyridin-3-yl)-2,6-dimethoxybenzenesulfonamide]",≥ 50

# Other lines, results leading:
row,IC50 [nM],Compound
1,< 0.5,"COc1ccc2c(c1S(=O)(=O)Nc1noc3cc(Cn4cccn4)c(F)c(OC)c13)OCCC2(C)C [Compound 27, N-(6-((1H-Pyrazol-1-yl)methyl)-5-fluoro-4-methoxybenzo[d]isoxazol-3-yl)-7-methoxy-4,4-dimethylchromane-8-sulfonamide]"
2,10 to 50,"COc1ccc2c(c1S(=O)(=O)Nc1noc3cc(Cn4cccn4)c(Cl)c(OC)c13)OCCC2(C)C [Compound 29, N-(6-((1H-Pyrazol-1-yl)methyl)-5-chloro-4-methoxybenzo[d]isoxazol-3-yl)-7-methoxy-4,4-dimethylchromane-8-sulfonamide]"
3,0.5 to 2,"COc1ccc2c(c1S(=O)(=O)Nc1noc3cc(Cn4cccn4)c(F)c(Cl)c13)OCCC2(C)C [Compound 31, N-(6-((1H-Pyrazol-1-yl)methyl)-4-chloro-5-fluorobenzo[d]isoxazol-3-yl)-7-methoxy-4,4-dimethylchromane-8-sulfonamide]"
4,2 to 10,"COc1ccc2c(c1S(=O)(=O)Nc1noc3cc(Cn4cccn4)c(F)c(Cl)c13)OCCO2 [Compound 32, N-(6-((1H-Pyrazol-1-yl)methyl)-4-chloro-5-fluorobenzo[d]isoxazol-3-yl)-6-methoxy-2,3-dihydrobenzo[b][1,4]dioxine-5-sulfonamide]"
5,0.5 to 2,"COc1ccc2c(c1S(=O)(=O)Nc1noc3cc(Cn4cccn4)cc(Cl)c13)OCCC2(C)C [Compound 33, N-(6-((1H-Pyrazol-1-yl)methyl)-4-chlorobenzo[d]isoxazol-3-yl)-7-methoxy-4,4-dimethylchromane-8-sulfonamide]"
6,< 0.5,"COc1ccc2c(c1S(=O)(=O)Nc1noc3cc(Cn4cccn4)c(F)c(OC)c13)OCCC21CC1 [Compound 43, N-(6-((1H-Pyrazol-1-yl)methyl)-5-fluoro-4-methoxybenzo[d]isoxazol-3-yl)-7-methoxyspiro[chromane-4,1′-cyclopropane]-8-sulfonamide]"
7,0.5 to 2,"COc1ccc2c(c1S(=O)(=O)Nc1noc3cc(Cn4cccn4)c(F)c(Cl)c13)OCCC2=O [Compound 48, N-(6-((1H-Pyrazol-1-yl)methyl)-4-chloro-5-fluorobenzo[d]isoxazol-3-yl)-7-methoxy-4-oxochromane-8-sulfonamide]"
8,2 to 10,"COc1ccc2c(c1S(=O)(=O)Nc1noc3cc(Cn4cccn4)c(F)c(Cl)c13)OCCC21CC1 [Compound 49, N-(6-((1H-Pyrazol-1-yl)methyl)-4-chloro-5-fluorobenzo[d]isoxazol-3-yl)-7-methoxyspiro[chromane-4,1′-cyclopropane]-8-sulfonamide]"
